In paper PMC6361841, “Repurposing of Drugs as Novel Influenza Inhibitors From Clinical Gene Expression Infection Signatures” (Frontiers in Immunology, 2019):
Read-outs that look alike come from different tables or passages of the source.

What was measured:
[1] = tested on: influenza A/Lyon/969/09 (H1N1)pdm09 virus; assay type: cell-based
[2] = tested on: MucilAir® human airway epithelia (HAE); experiment: LDH cytotoxicity in HAE; conditions: oseltamivir 1 μM, diltiazem 90 μM, combinations
[3] = tested on: influenza A/Quebec/144147/09 (H1N1)pdm09 virus; assay type: in vivo, C57BL/6N mice; conditions: for Clinical benefit in terms of survival vs saline (placebo) group: mg/kg/day: oseltamivir 10, monensin 10, diltiazem 90, etilefrine 3, lanatoside C 100, prednisolone 5, flucytosine 240, felbinac 5, timolol 50
[4] = tested on: A/Lyon/969/09 (H1N1)pdm09 virus; experiment: microbe, parasite or virus in culture; assay type: cell-based, influenza A(H1N1)pdm09 virus; conditions: Influenza A virus, H1N1, 48 h; pre-treatment/treatment in vitro; A549; […]; read-out: EC50
[5] = tested on: A(H1N1)pdm09 virus; assay type: cell-based, influenza virus
[6] = tested on: influenza A/Quebec/144147/09 (H1N1)pdm09 virus; assay type: in vivo, C57BL/6N mice; conditions: for Survival: mg/kg/day: oseltamivir 10, monensin 10, diltiazem 90, etilefrine 3; for Weight loss: oseltamivir 10, monensin 10, diltiazem 90 mg/kg/day
[7] = tested on: A/Texas/126/2016 (H3N2); experiment: Antiviral efficacy in A549 cells, H3N2 strain; assay type: cell-based, influenza virus
[8] = tested on: MucilAir® human airway epithelium; assay type: cell-based
[9] = tested on: B/Massachusetts/2/2106; experiment: Antiviral efficacy in A549 cells, B strain; assay type: cell-based, influenza virus
[10] = tested on: A/Lyon/969/09 (H1N1)pdm09 virus; experiment: microbe, parasite or virus in culture; assay type: cell-based, influenza A(H1N1)pdm09 virus; conditions: Influenza A virus, 6 h pre-treatment only, A549, Figure 2B
[11] = 24 h p.i., oseltamivir 0.1 µM, diltiazem 9 µM or both
[12] = 48 h p.i., oseltamivir 0.1 µM, diltiazem 9 µM or both
[13] = 72 h p.i., oseltamivir 0.1 µM, diltiazem 9 µM or both
[14] = 96 h p.i., oseltamivir 0.1 µM, diltiazem 9 µM or both
[15] = oseltamivir 1 μM, diltiazem 90 μM
[16] = oseltamivir 10 mg/kg/day, diltiazem 90 mg/kg/day

COc1ccc([C@@H]2Sc3ccccc3N(CCN(C)C)C(=O)[C@@H]2OC(C)=O)cc1 [Diltiazem]
Apical viral titer log TCID50/ml (CI95) [1, 11]: 6.47 (5.03 – 7.90) log TCID50/ml
Apical viral titer log TCID50/ml (CI95) [1, 12]: 8.91 (8.67 – 9.16) log TCID50/ml
Apical viral titer log TCID50/ml (CI95) [1, 13]: 8.21 (7.28 – 9.14) log TCID50/ml
Apical viral titer log TCID50/ml (CI95) [1, 14]: 7.32 (6.43 – 8.22) log TCID50/ml
Apical viral titer log TCID50/ml (CI95) ([1]; 96 h p.i., oseltamivir 1 µM, diltiazem 90 µM or both): 7.37 (5.97 – 8.76) log TCID50/ml
Effect on viral replication vs untreated control ([1]; oseltamivir 0.1 μM, diltiazem 9 μM (CMAP) or both, from 5 h p.i., once daily 5 days): no significant advantage over the untreated control
Reduction in apical viral titers at 48 h p.i. compared to the untreated control [1, 15]: > 3 log
Virus on the basolateral medium [1, 15]: No virus was detected
Delay of the peak of viral production ([1]; oseltamivir 1 μM, diltiazem 90 μM (10-fold CMAP)): 24 h
Reduction in apical peak viral titers compared to the untreated control ([1]; oseltamivir 1 μM, diltiazem 90 μM or both, 48 h p.i. untreated vs. 72 h p.i. treated): > 2 log
Treatment-induced toxicity (LDH release) [2]: absence of treatment-induced toxicity
Clinical benefit in terms of survival vs saline (placebo) group ([3]; […]): significantly improved survival
Weight loss vs saline (placebo) group ([3]; […], oseltamivir 10, diltiazem 90, etilefrine 3 mg/kg/day): significantly improved
Reduction in lung viral titers (LVTs) on day 5 p.i. ([3]; mouse, in vivo): at least 1 log
EC50 [4]: 0.84 nM
Effect of virus pre-incubation on final viral titers vs PBS-incubated controls ([5]; pre-incubation before infection): did not affect final viral titers
Viral titer, Dilution #2 ([5]; virus 10^5 TCID50/mL pre-incubated 1 h, diltiazem 9 µM, etilefrine 18 µM, oseltamivir 1 µM): 4.63 log TCID50/ml
Viral titer, Dilution #1 ([5]; virus 10^6 TCID50/mL pre-incubated 1 h, diltiazem 9 µM, etilefrine 18 µM, oseltamivir 1 µM): 5.63 log TCID50/ml
Mean relative Viral production ([5]; virus pre-incubated 1 h, relative to PBS control): 156.9 % of mock-treated
Hazard ratio (HR) for the saline group compared to treatment group (CI95) ([6]; diltiazem 45 mg/kg): 7.62 (1.49–38.96)
Mice rescued from death ([6]; half-dose diltiazem 45 mg/kg): 30%
Survival [6]: completely prevented mortality
Hazard ratio (HR) for the saline group compared to treatment group (CI95) [6, 16]: 2.85 (0.56–14.47)
Mice rescued from death [6, 16]: 20%
Weight loss [6]: reduced weight loss
Mean weight loss ([6]; mouse, in vivo): significant improvement
Relative Viral production ([7]; dose CMAP): 7.9 % of mock-treated
Viral titer ([7]; dose CMAP): 4.92 log TCID50/ml
Relative Viral production ([7]; dose CMAP/10): 12.75 % of mock-treated
Viral titer ([7]; dose CMAP/10): 5.13 log TCID50/ml
Δ TEER (CI95) [8, 11]: 35.10 (10.96 – 59.23) Ohm/cm^2
Δ TEER (CI95) ([8]; 24 h p.i., oseltamivir 1 µM, diltiazem 90 µM or both): 86.13 (3.72 – 168.5) Ohm/cm^2
Δ TEER (CI95) [8, 12]: -48.31 (-180.1 – 83.47) Ohm/cm^2
Δ TEER (CI95) ([8]; 48 h p.i., oseltamivir 1 µM, diltiazem 90 µM or both): 120.1 (-85.77 – 326.00) Ohm/cm^2
Δ TEER (CI95) [8, 13]: -218.0 (255.6 – -180.4) Ohm/cm^2
Δ TEER (CI95) ([8]; 72 h p.i., oseltamivir 1 µM, diltiazem 90 µM or both): -115.5 (-308.5 – 77.52) Ohm/cm^2
Δ TEER (CI95) [8, 14]: -220.5 (-267.4 – -173.5) Ohm/cm^2
TEER during the time-course of infection ([8]; oseltamivir 1 μM, diltiazem 90 μM or both): partially buffered the TEER decrease
Relative Viral production ([9]; dose CMAP): 4.7 % of mock-treated
Viral titer ([9]; dose CMAP): 3.97 log TCID50/ml
Relative Viral production ([9]; dose CMAP/10): 10.0 % of mock-treated
Viral titer ([9]; dose CMAP/10): 4.3 log TCID50/ml

CC[C@@]1([C@@H]2O[C@@H]([C@H]3O[C@@](O)(CO)[C@H](C)C[C@@H]3C)C[C@@H]2C)CC[C@H]([C@]2(C)CC[C@]3(C[C@H](O)[C@@H](C)[C@@H]([C@@H](C)[C@@H](OC)[C@H](C)C(=O)O)O3)O2)O1 [Monensin]
Clinical benefit in terms of survival vs saline (placebo) group ([3]; […]): clinical improvement
EC50 [4]: 3.27 nM
Survival [6]: completely prevented mortality
Weight loss [6]: reduced weight loss
EC50 [10]: 110 nM
